Assay results reported in patent US8629283B2, “Compounds that modulate negative-sense, single-stranded RNA virus replication and uses thereof” (Icahn School of Medicine at Mount Sinai, priority 2008, dated 2014).
Like-named read-outs stand apart in the source and are kept apart here. Marks after values point to notes of the source that are not given here.

Experiments:
[1] = test system: A549 cells; settings: for concentrations found non-toxic / not decreasing cell viability, up to: A549 cells, 24 h, MTS assay
[2] = test system: influenza A virus (FluA)
[3] = in vitro; settings: human
[4] = test system: influenza A/WSN/33 virus; type: cell-based
[5] = test system: influenza A/Moscow/10/99 virus; type: cell-based
[6] = test system: influenza A/Wyoming/03/2003 virus; type: cell-based
[7] = test system: influenza B/Yamagata/88 virus; type: cell-based
[8] = test system: influenza A/WSN/33 virus
[9] = test system: influenza A/WSN/33 virus; assay: microbe, parasite or virus in culture; settings: A549, 24 h
[10] = test system: influenza A virus (FluA); assay: in vitro; settings: human
[11] = test system: influenza A virus (FluA); assay: microbe, parasite or virus in culture; settings: A549, read-out: IC50 (A549)
[12] = test system: Newcastle disease virus (NDV/B1); type: cell-based
[13] = test system: vesicular stomatitis virus (VSV); type: cell-based
[14] = biological target: influenza viral RNA polymerase (Influenza A virus, UniProt P03427+P03430+P15659); type: cell-based
[15] = read-out: IC50 (compound concentration of 50% inhibition of viral replication)

## CN(c1nc(-c2ccccc2)cs1)C1CCS(=O)(=O)C1 (stereo not drawn) [A35-2]
[1]; human
  CC10 (A549), concentration of 10% cytotoxicity: 12.2 µM
[2]
  Inhibition of FluA (Table 5): none**
[3]
  CC50: 148 µM

## C[C@]12CC[C@H]3[C@@H](CC[C@]4(O)C[C@@H](O)CC[C@]34C=O)[C@@]1(O)CC[C@@H]2C1=CC(=O)OC1 [strophanthidin]
[4]
  HTS result (luciferase signal of influenza mini-genome reporter): potential influenza virus inhibitors

## C=C(C)[C@@]12O[C@@]3(c4ccccc4)O[C@@H]1[C@@H]1[C@@H]4O[C@]4(CO)[C@@H](O)[C@]4(O)C(=O)C(C)=C[C@H]4[C@@]1(O3)[C@H](C)[C@H]2OC(=O)/C=C/C=C/c1ccccc1 [mezerein]
[5]
  maximum viral titer compared to untreated cells: significant increase
[6]
  maximum viral titer compared to untreated cells: significant increase
[7]
  increase of viral titer compared to untreated cells: 8 fold
[8]
  increase in viral titers in Vero cells: 15 fold
  increase of viral titer compared to untreated cells: 17 fold

## CC(=O)c1c(O)c(C)c(O)c(Cc2c(O)c3c(c(C(=O)/C=C/c4ccccc4)c2O)OC(C)(C)C=C3)c1O [rottlerin]
[1]
  concentrations found non-toxic / not decreasing cell viability, up to: up to 1.28 μM
[9]; [15]
  IC50: 0.46 µM
[9]; read-out: IC50 (half maximal inhibitory concentration)
  IC50: 0.465 µM
[7]
  reduction in viral titer compared to untreated control: 80%
[8]
  SI [CC50/IC50] selective index: 39
  reduction in viral titer compared to untreated control: 93%
[4]
  HTS result (luciferase signal of influenza mini-genome reporter): potential influenza virus inhibitors

## CN(c1ccc(O)cc1)c1nc(-c2ccc(Cl)cc2)cs1 [A35-4, 4-[[4-(4-chlorophenyl)-1,3-thiazol-2-yl](methyl)amino]phenol]
[10]
  selectivity ratio: 5
[1]; human
  CC10 (A549), concentration of 10% cytotoxicity: 6 µM
[2]
  Inhibition of FluA (Table 5): ~50%**
[3]
  CC50: 30 µM
[11]
  IC50: 6 µM

## O=C(CSc1nnc(-c2cc3ccccc3[nH]2)o1)N1CCCC1 [A3-7]
[1]; human
  CC10 (A549), concentration of 10% cytotoxicity: 15.2 µM
[2]
  Inhibition of FluA (Table 5): ~29%**
[3]
  CC50: 134 µM

## O=C(CSc1nnc(-c2cccnc2)o1)N1CCCC1 [A3-11]
[1]; human
  CC10 (A549), concentration of 10% cytotoxicity: 32.6 µM
[2]
  Inhibition of FluA (Table 5): none**
[3]
  CC50: 249 µM

## CCCCCCCCCCCCCC(=O)O[C@@H]1[C@@H](C)[C@@]2(O)[C@@H](C=C(CO)C[C@]3(O)C(=O)C(C)=C[C@@H]23)[C@@H]2C(C)(C)[C@]12OC(C)=O [PMA, phorbol 12-myristate 13-acetate]
[8]
  increase of viral titer compared to untreated cells: 12 fold
[4]
  HTS result (luciferase signal of influenza mini-genome reporter): not originally recognized in the screen as an enhancer

## O=C(CSc1nnc(-c2ccncc2)o1)N1CCCC1 [A3-12]
[1]; human
  CC10 (A549), concentration of 10% cytotoxicity: 11.5 µM
[2]
  Inhibition of FluA (Table 5): ~29%**
[3]
  CC50: 186 µM

## Nc1nc(-c2ccc(Cl)cc2)cs1 [A35-3]
[1]; human
  CC10 (A549), concentration of 10% cytotoxicity: 11.4 µM
[2]
  Inhibition of FluA (Table 5): none**
[3]
  CC50: 165 µM

## N#Cc1cc2c(OCC(O)CN3CCN(C(c4ccccc4)c4ccccc4)CC3)cccc2[nH]1 (stereo not drawn) [SDZ-201106]
[1]
  concentrations found non-toxic / not decreasing cell viability, up to: up to 12.5 μM
[7]
  reduction in viral growth/titer compared to untreated control: 72%
[8]
  SI [CC50/IC50] selective index: 7
  reduction in viral titer compared to untreated control: 85%
[8]; [15]
  IC50: 4.1 µM
[4]
  HTS result (luciferase signal of influenza mini-genome reporter): potential influenza virus inhibitors

## CCN(CC)C(=O)CSc1nnc(-c2ccc3[nH]c(C)c(C)c3c2)o1 [A3-2, 2-(5-(2,3-dimethyl-1H-indol-5-yl)-1,3,4-oxadiazol-2-ylthio)-N,N-diethylacetamide]
[10]
  selectivity ratio: > 165
[1]; human
  CC10 (A549), concentration of 10% cytotoxicity: 29 µM
[2]
  Inhibition of FluA (Table 5): ~97%**
[3]
  CC50: 198 µM
[11]
  IC50: 1.2 µM

## C[C@@H]1O[C@@H](O[C@H]2C[C@@H](O)[C@]3(CO)[C@H]4[C@H](O)C[C@]5(C)[C@@H](C6=CC(=O)OC6)CC[C@]5(O)[C@@H]4CC[C@]3(O)C2)[C@H](O)[C@H](O)[C@H]1O [ouabain]
[1]; human
  CC50: 0.047 µM
  concentration that maintained at least an 80% cell viability (CC20): 0.02 µM
[12]
  inhibition of NDV replication: significantly inhibited
[13]
  inhibition of VSV replication: significantly inhibited
[8]
  decrease of viral titer compared to untreated control: 99.1%
[4]
  HTS result (luciferase signal of influenza mini-genome reporter): potential influenza virus inhibitors

## lanatoside C
[1]
  CC50: 0.21 µM
  concentration that maintained at least an 80% cell viability (CC20): 0.078 µM
[12]
  inhibition of NDV replication: significantly inhibited
[13]
  inhibition of VSV replication: significantly inhibited
[8]
  decrease of viral titer compared to untreated control: 95.9%
[4]
  HTS result (luciferase signal of influenza mini-genome reporter): potential influenza virus inhibitors

## N/C(=N\C(=O)c1nc(Cl)c(N)nc1N)NCc1ccc(Cl)c(Cl)c1 [3′,4′-dichlorobenzamil]
[8]
  efficiency of growth enhancement relative to 2′,4′-dichlorobenzamil: 10 times less efficient
  influenza virus growth versus untreated control: boost influenza virus replication

## Cc1[nH]c2ccc(-c3nnc(SCC(=O)N(C(C)C)C(C)C)o3)cc2c1C [A3-4, 2-(5-(2,3-dimethyl-1H-indol-5-yl)-1,3,4-oxadiazol-2-ylthio)-N,N-diisopropylacetamide]
[10]
  selectivity ratio: 11
[1]; human
  CC10 (A549), concentration of 10% cytotoxicity: 10.7 µM
[2]
  Inhibition of FluA (Table 5): ~87.5%**
[3]
  CC50: 17.7 µM
[11]
  IC50: 1.65 µM

## CCN(CC)S(=O)(=O)c1ccc(-c2nnc(SCC(=O)N3CCCC3)o2)cc1 [A3-1]
[1]; human
  CC10 (A549), concentration of 10% cytotoxicity: 17.3 µM
[2]
  Inhibition of FluA (Table 5): ~29%**
[3]
  CC50: 316 µM

## CN(Cc1ccccc1)c1nc(-c2ccc([N+](=O)[O-])cc2)cs1 [A35-1, N-methyl-4-(4-nitrophenyl)-N-(phenylmethyl)-2-thiazolamine]
[10]
  selectivity ratio: 62
[1]; human
  CC10 (A549), concentration of 10% cytotoxicity: 10.8 µM
[2]
  Inhibition of FluA (Table 5): ~75%**
[3]
  CC50: 201 µM
[11]
  IC50: 3.24 µM

## COc1ccc(-c2nnc(SCC(=O)N3CCCC3)o2)cc1 [A3-8]
[1]; human
  CC10 (A549), concentration of 10% cytotoxicity: 11.8 µM
[2]
  Inhibition of FluA (Table 5): none**
[3]
  CC50: 250 µM

## Cc1[nH]c2ccc(-c3nnc(SCC(=O)N4CCOCC4)o3)cc2c1C [A3-5, 2-(5-(2,3-dimethyl-1H-indol-5-yl)-1,3,4-oxadiazol-2-ylthio)-1-morpholinoethanone]
[10]
  selectivity ratio: 514
[1]; human
  CC10 (A549), concentration of 10% cytotoxicity: 10.2 µM
[2]
  Inhibition of FluA (Table 5): ~97%**
[3]
  CC50: 257 µM
[11]
  IC50: 0.5 µM

## Cc1[nH]c2ccc(-c3nnc(SCC(=O)N4CCc5ccccc54)o3)cc2c1C [A3-3, 2-(5-(2,3-dimethyl-1H-indol-5-yl)-1,3,4-oxadiazol-2-ylthio)-1-(indolin-1-yl)ethanone]
[10]
  selectivity ratio: 8
[1]; human
  CC10 (A549), concentration of 10% cytotoxicity: 8.5 µM
[2]
  Inhibition of FluA (Table 5): ~50%**
[3]
  CC50: 65 µM
[11]
  IC50: 8.5 µM

## Cc1[nH]c2ccc(-c3nnc(SCC(=O)N4CCCCCC4)o3)cc2c1C [A3-6, 1-(azepan-1-yl)-2-(5-(2,3-dimethyl-1H-indol-5-yl)-1,3,4-oxadiazol-2-ylthio)ethanone]
[10]
  selectivity ratio: 180
[1]; human
  CC10 (A549), concentration of 10% cytotoxicity: 18.2 µM
[2]
  Inhibition of FluA (Table 5): ~87.5%**
[3]
  CC50: 179 µM
[11]
  IC50: 0.98 µM

## C[C@H]1O[C@@H](O[C@H]2[C@@H](O)C[C@H](O[C@H]3[C@@H](O)C[C@H](O[C@H]4CC[C@@]5(C)[C@H](CC[C@@H]6[C@@H]5C[C@@H](O)[C@]5(C)[C@@H](C7=CC(=O)OC7)CC[C@]65O)C4)O[C@@H]3C)O[C@@H]2C)C[C@H](O)[C@@H]1O [digoxin]
[4]
  HTS result (luciferase signal of influenza mini-genome reporter): potential influenza virus inhibitors

## NC(=O)c1ncn([C@@H]2O[C@H](CO)[C@@H](O)[C@H]2O)n1 [ribavirin, reference compound]
[14]
  inhibition of viral RNA polymerase activity: 90%

## O=C(CSc1nnc(-c2cc3ccccc3o2)o1)N1CCCC1 [A3-9]
[1]; human
  CC10 (A549), concentration of 10% cytotoxicity: 10.9 µM
[2]
  Inhibition of FluA (Table 5): ~29%**
[3]
  CC50: 197 µM
